Test results as given in US8691804B2 (Evotec AG, priority 2008, dated 2014).

Biological target: T1, human H3 receptors (Homo sapiens, UniProt Q9Y5N1)
T1 construct: host or cells: CHO-K1
Assay: cAMP quantification assay for human H3 receptor testing
Type: cell-based
Conditions: CHO-K1 cells expressing human H3 receptors; inhibition of agonist-induced decrease of cAMP; 100 nM histamine, 10 μM forskolin; read-out: Potency range (IC50 values)
Method: CHO—K1 cell line expressing human H3 receptors were purchased from Euroscreen (Gosselies, Belgium, Cat. no.: ES-392-C)
Human H3 receptor-expressing cell-lines were grown in Ham's F12 [Sigma, Cat. no. N6658], supplemented with 10% FBS [Sigma, Cat. no. F9665], 400 μg/ml G418 [Sigma, Cat. no. N1876] and 250 μg/ml Zeocin [Invitrogen, Cat. no. 46-0509]) according to the protocol provided by Euroscreen.
The assay measures the ability of test compounds to inhibit Histamine receptor agonist-induced decrease of intracellular free cAMP (receptor is Gi coupled).
Specifically, a cAMP quantification assay system from DiscoveRx (cAMP XS+; Cat. no. 90-0075) was used.
For the cAMP assay, confluent cells were detached from the culture vessels with 1× trypsin-EDTA solution (Sigma), and seeded into 384-well Costar plates (white, clear bottom, Cat. no. 3707) at a density of 10,000 cells per well. Cells were seeded in a volume of 50 μl in medium without antibiotics and incubated overnight in a humidified atmosphere with 5% CO2 at 37° C. The cAMP assay was performed according to the protocol provided by DiscoveRx.
The cell culture medium was removed and the cells washed once with PBS (50 μl per well). The plates were emptied by inversion and 7.5 μl/well of compound in PBS (containing 1 mM IBMX and 0.03% BSA) were added and incubated for 30 min at 37° C.
Subsequent 7.5 μl/well specific agonist solution was added and the plates for another 30 min incubated at 37° C.
hH3:100 nM histamine, 10 μM forskolin in PBS (containing 1 mM IBMX and 0.03% BSA)
After the incubation with the agonist, 5 μl/well cAMP XS antibody solution was added followed by 20 μl/well Gal/EII/Lysis (1:5:19)+ED (1:1). The plates were incubated for one hour at room temperature and afterwards 20 μl/well EA reagent was added. The luminescence was developed for approximately three hours at room temperature and the plates were read out using a ‘BMG Novostar’ plate reader.
Test compounds were assayed at 8 concentrations in triplicate. Serial 10-fold dilutions in 100% DMSO were made at a 100-times higher concentration than the final concentration and then diluted with a 2 step protocol in assay buffer to reach the required assay concentrations and 1% DMSO. […]

T1 sequence (Q9Y5N1 whole entry): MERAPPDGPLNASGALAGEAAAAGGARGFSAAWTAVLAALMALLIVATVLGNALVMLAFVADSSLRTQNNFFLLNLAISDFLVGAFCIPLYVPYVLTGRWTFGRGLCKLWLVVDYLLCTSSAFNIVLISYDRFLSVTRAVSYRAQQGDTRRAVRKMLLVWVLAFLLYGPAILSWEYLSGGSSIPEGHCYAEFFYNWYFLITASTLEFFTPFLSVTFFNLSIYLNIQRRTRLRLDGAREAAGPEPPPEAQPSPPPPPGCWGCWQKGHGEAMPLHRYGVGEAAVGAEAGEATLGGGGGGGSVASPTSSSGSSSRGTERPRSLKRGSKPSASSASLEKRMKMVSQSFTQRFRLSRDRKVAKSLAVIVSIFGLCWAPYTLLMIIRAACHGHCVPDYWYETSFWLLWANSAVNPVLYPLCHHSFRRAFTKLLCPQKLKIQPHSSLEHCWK

SMILES	IC50 [nM]
CNC(=O)c1ccc(OC2CN(C(=O)N3CCN(C4CCC4)CC3)C2)cn1 [Example 37, 5-({1-[(4-cyclobutylpiperazin-1-yl)carbonyl]azetidin-3-yl}oxy)-N-methylpyridine-2-carboxamide]	< 100
O=C(N1CCCN(C2CCC2)CC1)N1CC(COc2ccc(C(F)(F)F)nc2)C1 [Example 153, 1-cyclobutyl-4-{[3-({[6-(trifluoromethyl)pyridin-3-yl]oxy}methyl)azetidin-1-yl]carbonyl}-1,4-diazepane]	< 100
O=C(N1CCCN(C2CCC2)CC1)N1CC(Oc2ccc(C(F)(F)F)nc2)C1 [Example 94, 1-cyclobutyl-4-[(3-{[6-(trifluoromethyl)pyridin-3-yl]oxy}azetidin-1-yl)carbonyl]-1,4-diazepane]	< 100
O=C(C1CC1)N1CCc2nc(OC3CN(C(=O)N4CCCN(C5CCC5)CC4)C3)ccc2C1 [Example 83, 2-({1-[(4-cyclobutyl-1,4-diazepan-1-yl)carbonyl]azetidin-3-yl}oxy)-6-(cyclopropylcarbonyl)-5,6,7,8-tetrahydro-1,6-naphthyridine]	< 100
O=C(N1CCCN(C2CCC2)CC1)N1CC(Oc2cccc(Cl)c2)C1 [Example 32, 1-{[3-(3-chlorophenoxy)azetidin-1-yl]carbonyl}-4-cyclobutyl-1,4-diazepane]	< 100
N#Cc1ccc(COC2CN(C(=O)N3CCCN(C4CCC4)CC3)C2)cc1 [Example 98, 4-[({1-[(4-cyclobutyl-1,4-diazepan-1-yl)carbonyl]azetidin-3-yl}oxy)methyl]benzonitrile]	< 100
O=C(Nc1ccc(Cl)cc1)C1CN(C(=O)N2CCCN(C3CCC3)CC2)C1 [Example 123, N-(4-chlorophenyl)-1-[(4-cyclobutyl-1,4-diazepan-1-yl)carbonyl]azetidine-3-carboxamide]	< 100
CNC(=O)c1ccc(OC2CN(C(=O)N3CCCN(C4CCC4)CC3)C2)c(C)c1 [Example 34, 4-({1-[(4-cyclobutyl-1,4-diazepan-1-yl)carbonyl]azetidin-3-yl}oxy)-N,3-dimethylbenzamide]	< 100
COc1ccccc1OC1CN(C(=O)N2CCCN(C3CCC3)CC2)C1 [Example 92, 1-cyclobutyl-4-{[3-(2-methoxyphenoxy)azetidin-1-yl]carbonyl}-1,4-diazepane]	< 100
CS(=O)(=O)c1ccc(OC2CN(C(=O)N3CCCN(C4CCC4)CC3)C2)cc1 [Example 163, 1-cyclobutyl-4-({3-[4-(methylsulfonyl)phenoxy]azetidin-1-yl}carbonyl)-1,4-diazepane]	< 100
COC(=O)C1CN(C(=O)N2CCCN(C3CCC3)CC2)C1 [Example 122, methyl 1-[(4-cyclobutyl-1,4-diazepan-1-yl)carbonyl]azetidine-3-carboxylate]	< 100
O=C(N1CCCN(C2CCC2)CC1)N1CC(Oc2ccc(Cl)cc2)C1 [Example 14, 1-{[3-(4-chlorophenoxy)azetidin-1-yl]carbonyl}-4-cyclobutyl-1,4-diazepane]	< 100
O=C(N1CCN(C2CCC2)CC1)N1CC(O)C1 [Example 2, 1-[(4-cyclobutylpiperazin-1-yl)carbonyl]azetidin-3-ol]	500 to 5000
N#Cc1ccc(OC2CN(C(=O)N3CCN(C4CCC4)CC3)C2)cc1 [Example 40, 4-({1-[(4-cyclobutylpiperazin-1-yl)carbonyl]azetidin-3-yl}oxy)benzonitrile]	< 100
O=C(N1CCCN(C2CCC2)CC1)N1CC(Oc2ccc3c(n2)CCN(C2CCC2)C3)C1 [Example 42, 6-cyclobutyl-2-({1-[(4-cyclobutyl-1,4-diazepan-1-yl)carbonyl]azetidin-3-yl}oxy)-5,6,7,8-tetrahydro-1,6-naphthyridine]	< 100
CNC(=O)c1ccc(OC2CN(C(=O)N3CCCN(C)CC3)C2)cn1 [Example 113, 5-({1-[(4-methyl-1,4-diazepan-1-yl)carbonyl]azetidin-3-yl}oxy)-N-methylpyridine-2-carboxamide]	500 to 5000
Cc1ccc(OC2CN(C(=O)N3CCCN(C4CCC4)CC3)C2)cn1 [Example 121, 1-cyclobutyl-4-({3-[(6-methylpyridin-3-yl)oxy]azetidin-1-yl}carbonyl)-1,4-diazepane]	< 100
O=C(N1CCCN(C2CCC2)CC1)N1CC(O)C1 [Example 1, 1-[(4-cyclobutyl-1,4-diazepan-1-yl)carbonyl]azetidin-3-ol]	< 100

SMILES	IC50 [nM]
Cc1cc(OC2CN(C(=O)N3CCCN(C4CCC4)CC3)C2)ccn1 [Example 27, 1-cyclobutyl-4-({3-[(2-methylpyridin-4-yl)oxy]azetidin-1-yl}carbonyl)-1,4-diazepane]	< 100
Nc1cc(OC2CN(C(=O)N3CCCN(C4CCC4)CC3)C2)ccn1 [Example 57, 4-({1-[(4-cyclobutyl-1,4-diazepan-1-yl)carbonyl]azetidin-3-yl}oxy)pyridin-2-amine]	< 100
O=C(N1CCCN(C2CCC2)CC1)N1CC(Oc2cccn3ccnc23)C1 [Example 70, 8-({1-[(4-cyclobutyl-1,4-diazepan-1-yl)carbonyl]azetidin-3-yl}oxy)imidazo[1,2-a]pyridine]	< 100
O=C(N1CCCN(C2CCC2)CC1)N1CC(Oc2ccc(Cl)cc2F)C1 [Example 90, 1-{[3-(4-chloro-2-fluorophenoxy)azetidin-1-yl]carbonyl}-4-cyclobutyl-1,4-diazepane]	< 100
Cc1ccc(NC(=O)C2CN(C(=O)N3CCCN(C4CCC4)CC3)C2)cn1 [Example 132, 1-[(4-cyclobutyl-1,4-diazepan-1-yl)carbonyl]-N-(6-methylpyridin-3-yl)azetidine-3-carboxamide]	< 100
N#Cc1ccc(CNC2CN(C(=O)N3CCCN(C4CCC4)CC3)C2)cc1 [Example 112, 4-[({1-[(4-cyclobutyl-1,4-diazepan-1-yl)carbonyl]azetidin-3-yl}amino)methyl]benzonitrile]	< 100
CCc1cc(OC2CN(C(=O)N3CCCN(C4CCC4)CC3)C2)ccn1 [Example 54, 1-cyclobutyl-4-({3-[(2-ethylpyridin-4-yl)oxy]azetidin-1-yl}carbonyl)-1,4-diazepane]	< 100
Cc1cncc(OC2CN(C(=O)N3CCCN(C4CCC4)CC3)C2)n1 [Example 63, 1-cyclobutyl-4-({3-[(6-methylpyrazin-2-yl)oxy]azetidin-1-yl}carbonyl)-1,4-diazepane]	< 100
O=C(N1CCCN(C2CCC2)CC1)N1CC(Oc2ccc(Cn3cccn3)cn2)C1 [Example 17, 1-cyclobutyl-4-[(3-{[5-(1H-pyrazol-1-ylmethyl)pyridin-2-yl]oxy}azetidin-1-yl)carbonyl]-1,4-diazepane]	< 100
O=C1CN(C(=O)N2CCCN(C3CCC3)CC2)C1 [Example 108, 1-[(4-cyclobutyl-1,4-diazepan-1-yl)carbonyl]azetidin-3-one]	< 100
O=C(NCC1CC1)c1ccc(OC2CN(C(=O)N3CCCN(C4CCC4)CC3)C2)cn1 [Example 35, 5-({1-[(4-cyclobutyl-1,4-diazepan-1-yl)carbonyl]azetidin-3-yl}oxy)-N-(cyclopropylmethyl)pyridine-2-carboxamide]	< 100
O=C(N1CCCN(C2CCC2)CC1)N1CC(Oc2ccc3[nH]ccc3c2)C1 [Example 154, 5-({1-[(4-cyclobutyl-1,4-diazepan-1-yl)carbonyl]azetidin-3-yl}oxy)-1H-indole]	< 100
CC(C)c1cc(OC2CN(C(=O)N3CCCN(C4CCC4)CC3)C2)ccn1 [Example 55, 1-cyclobutyl-4-[(3-{[2-(1-methylethyl)pyridin-4-yl]oxy}azetidin-1-yl)carbonyl]-1,4-diazepane]	< 100
O=C(N1CCCN(C2CCC2)CC1)N1CC(Oc2ccncc2Cl)C1 [Example 67]	< 100
CNC(=O)c1ccc(OC2CN(C(=O)N3CCCN(C4CCC4)CC3)C2)c(F)c1 [Example 43, 4-({1-[(4-cyclobutyl-1,4-diazepan-1-yl)carbonyl]azetidin-3-yl}oxy)-3-fluoro-N-methylbenzamide]	< 100
O=C(N1CCCN(C2CCC2)CC1)N1CC(Oc2ccc(Cl)nc2)C1 [Example 46, 1-({3-[(6-chloropyridin-3-yl)oxy]azetidin-1-yl}carbonyl)-4-cyclobutyl-1,4-diazepane]	< 100
O=C(N1CCCN(C2CCC2)CC1)N1CC(Oc2ccc(Cl)cn2)C1 [Example 77, 1-({3-[(5-chloropyridin-2-yl)oxy]azetidin-1-yl}carbonyl)-4-cyclobutyl-1,4-diazepane]	< 100
